Data on seven compounds can be found in patent publication EP0335745A1, “Process for producing pyrid-4-ones” (THE ROYAL FREE HOSPITAL SCHOOL OF MEDICINE, priority 1988, dated 1989).

Data set [1] is described as follows: pKa determination of the chelators. The data set is classed as physicochemical.
Data set [2] is described as follows: n-octanol/water (PBS) partition coefficient (K par) of the chelators and their iron complexes. The data set is classed as physicochemical. Conditions: for K par Chelator / K par Iron Complex: n-octanol/water (PBS), Table 4; for K par Chelator / Kpar Chelator: free chelator; for K par Iron Complex: iron complex of the chelator; for Kpar Chelator / Kpar iron Complex: n-octanol/phosphate buffer saline (PH 7.3), Table 7. On the procedure: The n-octanol/water (PBS) partition coefficients (K par) of the chelators and their iron complexes were determined using a previously determined method.
(§1) The partition coefficients of the chelators and their iron complexes were determined using a mixture of n-octanol and phosphate buffer saline at pH 7.3 as previously described. The effect of the chelators on the incorporation of iron containing traces of ⁵⁹Fe into red blood cells was studied as previously described by incubating the chelator iron complexes with packed red blood cells at 37°C, withdrawing aliquots, centrifuging and measuring the incorporation of ⁵⁹Fe into the red blood cells.

The next data set has as its target T1, human transferrin (Homo sapiens, UniProt P02787).
T1 construct: purchased Sigma
In words: Iron mobilisation from 59Fe transferrin by dialysis against chelator solution. The data set is classed as biochemical. To be noted: chelator 4x10⁻³M, 37°C, pH 7.3, 2 x PBS. On the procedure:
Human apotransferrin (Sigma) was radioactively labelled with ⁵⁹Fe and saturated with iron as previously described. Samples (1.5ml) of the ⁵⁹Fe transferrin (0.54mg protein, 0.75 µg iron, 0.07 µCi ⁵⁹Fe) were enclosed in a dialysis bag and dialysed against a chelator solution (10ml, 4mM) by continuous stirring at 37°C. Samples (1ml) of the dialysate were removed at different time intervals, the ⁵⁹Fe activity measured and then returned back into the incubation mixture. Ferritin solution and haemosiderin solid were isloated from a spleen of a thalassemia patient and samples containing the same amount of iron (0.25mg, 1.5ml) were dialysed at 37°C against a chelator solution (4mM, 10ml) over a 12 day period. The amount of iron immobilised was estimated spectrophotometrically by measuring the visible absorbance of the dialysate and by using the extinction coefficient of the chelator iron complex (Fig 3, Table 6). All the protein incubations with the chelators were carried out in the 2xPBS pH 7.3.
Haemosiderin (0.25mg iron, 16.5% w/w iron, […]) ferritin (0.25mg iron, 10.7% w/w iron, 1.5ml) and transferrin (0.75ug iron, 0.54mg protein, 0.07 uCi ⁵⁹Fe, 1.5ml) in dialysis bags were dialysed against the chelators (4x10⁻³M, 10ml) at 37°C, pH 7.3 in 2 x PBS by continuous stirring. Iron mobilisation was estimated from samples of the dialysates taken at different time intervals as explained in the Materials and Methods section.

In a further data set the test system is haemosiderin. In words: Iron mobilisation from haemosiderin by dialysis against chelator solution. The data set is classed as biochemical, human. To be noted: chelator 4x10⁻³M, 37°C, pH 7.3, 2 x PBS, * = duplicate samples. On the procedure: • Fig 1: pH titration of the chelator iron complexes. Chelators (2mM in 0.1M NaCl, 25ml) and freshly prepared iron (III) chloride (0.5mM in 0.1M NaCl, 25ml) were mixed and titrated with HCl (10M) and NaOH (5M). The absorbance of the chelator iron mixture at 460nm was measured after each pH change. 1-Methyl- (Δ), 1-ethyl- (□) and 1-propyl- (◇) -2-ethyl-3-hydroxypyrid-4-ones. • Fig 2: • A. Job plots of the 1-alkyl-2-ethyl-3-hydroxypyrid-4-ones with iron at pH 7.3. Chelators (2mM in […] 0-5ml) and iron (2mM in 0.1M NaCl, 0-5ml) were mixed at different molar ratios to a final volume of 5ml. 4 x PBS (5ml), pH 7.3 was then added and the absorbance at 460nm measured. […] Theoretical Job plots for 1:1, 2:1, 3:1 chelator:iron complexes were obtained using the maximum absorbance values from the Job plots in A. 1:1 (◇) 2:1 (□), 3:1 (Δ). • Fig. 3: Iron mobilisation from human ferritin and haemosiderin using 1-alkyl-2-ethyl-3-hydroxypyrid-4-ones. […] The progress of the reaction was followed by measuring the absorbance at 460nm of the dialysate at different time intervals.
Human apotransferrin (Sigma) was radioactively labelled with ⁵⁹Fe and saturated with iron as previously described. […] Samples (1ml) of the dialysate were removed at different time intervals, the ⁵⁹Fe activity measured and then returned back into the incubation mixture. […]

For data set [3], the system named is iron loaded ⁵⁹Fe transferrin labelled mice. Kind of data set: Iron mobilisation (59Fe excretion) from iron loaded 59Fe transferrin labelled mice. To be noted: dose 10mg; for %⁵⁹Fe excretion X ± SE: mice 31-35g, mean of 3 days before chelator administration = 100%. The data set is classed as in vivo. The source says:
Iron mobilisation from iron loaded ⁵⁹Fe transferrin labelled mice by the 1-alkyl-2-ethyl-3-hydroxypyrid-4-ones was studied as previously described.

The next data set concerns red blood cells. Kind of data set: Red blood cell permeability: incorporation of 59Fe into red blood cells in the presence of the chelators. The data set is classed as cell-based. To be noted: iron 2.5 x 10⁻⁵M, chelators 18 x 10⁻⁵M, packed red blood cells, 37°C. On the procedure:
as §1

The subject of another data set is loaded mice and rabbits. Conditions: doses of up to 200 mg/kg, also non iron loaded mice; cited from earlier work.
In a further data set the test system is male Sprague Dawley rats. Kind of data set: Lethal dose range in rats, intraperitoneal administration. The data set is classed as in vivo. On the procedure:
The three 1-alkyl-3-hydroxy-2-methylpyrid-4-ones dissolved in phosphate buffer saline were administered intraperitoneally to groups of three male Sprague Dawley rats (60-90g) at different doses until a near maximum non-lethal dose was established.

Where [4] appears, read: pKa of the hydroxyl group, read-out: Pka(2).
The mark [5] stands for this setting: male, Sprague Dawley, rat, in vivo, ip.

Structures are written as SMILES. Read-outs that look alike come from different tables or passages of the source.

T1 sequence (P02787 20-698): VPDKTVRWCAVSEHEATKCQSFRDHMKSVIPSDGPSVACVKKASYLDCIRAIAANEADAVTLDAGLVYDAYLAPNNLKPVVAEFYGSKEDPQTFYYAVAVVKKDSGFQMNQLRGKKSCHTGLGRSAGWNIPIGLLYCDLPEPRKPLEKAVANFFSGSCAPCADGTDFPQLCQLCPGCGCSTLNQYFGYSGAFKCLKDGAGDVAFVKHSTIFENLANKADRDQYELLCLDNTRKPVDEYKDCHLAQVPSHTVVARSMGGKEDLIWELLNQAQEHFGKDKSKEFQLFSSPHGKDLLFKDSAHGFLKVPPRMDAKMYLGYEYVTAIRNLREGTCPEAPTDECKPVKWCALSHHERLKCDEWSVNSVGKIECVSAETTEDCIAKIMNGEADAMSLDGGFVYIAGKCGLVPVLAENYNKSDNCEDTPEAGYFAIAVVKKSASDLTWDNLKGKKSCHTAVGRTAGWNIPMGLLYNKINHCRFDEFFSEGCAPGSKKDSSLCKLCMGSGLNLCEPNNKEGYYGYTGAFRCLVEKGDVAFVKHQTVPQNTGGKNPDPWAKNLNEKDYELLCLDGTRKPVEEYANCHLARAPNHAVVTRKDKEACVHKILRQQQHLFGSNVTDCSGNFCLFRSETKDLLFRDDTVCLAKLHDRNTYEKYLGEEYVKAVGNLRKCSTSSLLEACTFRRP

For orientation: pKa means the negative logarithm of the acid dissociation constant. Regarding `CCCn1ccc(=O)c(O)c1CC` [Example 6, 2-ethyl-3-hydroxy-1-propylpyrid-4-one], the pKa in data set [1] (setting [4]) worked out at 10.1. Further, the pKa in data set [1] (read-out: PKa(1)) worked out at 3.4. In data set [2], the “K par Chelator” value is 4.2 and the “K par Iron Complex” value was determined as 9.68. Also, at human transferrin, the “Percentage Iron Removal Transferrin ⁵⁹Fe 1h” value is given as 23.2, the “Percentage Iron Removal Transferrin ⁵⁹Fe 2h” value was found to be 50.3 and the “Percentage Iron Removal Transferrin ⁵⁹Fe 8h” value was 97.6. Further, in the data set with haemosiderin (24h), the “Percentage Iron Removal Haemosiderin 24h” value is reported as 27.8. Further, the “Percentage Iron Removal Haemosiderin 12d” value in the data set on haemosiderin (12d) is recorded as 74.5. Moreover, the “%⁵⁹Fe excretion X ± SE” value in data set [3] (ig) is 163 ± 25%. Further, in data set [3] (ip), the “%⁵⁹Fe excretion X ± SE” value came out at 334 ± 64%. For the same compound, the “death of mice before the completion of the treatment” value in data set [3] (mice, ip or ig, 11 administrations) is given as “caused death to two mice”.
Turning to `Cc1c(O)c(=O)ccn1C` [Example 1, 1,2-Dimethyl-3-hydroxypyrid-4-one], in data set [1] (setting [4]), the pKa worked out at 9.7. Besides, in data set [1] (read-out: PKa(1)), the pKa turned out to be 3.3. In data set [2], the “Kpar Chelator” value turned out to be 0.19, the “Kpar iron Complex” value came to 0.24, the “K par Chelator” value is recorded as 0.19 and the “K par Iron Complex” value was determined as 0.24. Also, at human transferrin, the “Percentage Iron Removal Transferrin ⁵⁹Fe 1h” value is 37.3, the “Percentage Iron Removal Transferrin ⁵⁹Fe 2h” value is given as 69.9 and the “Percentage Iron Removal Transferrin ⁵⁹Fe 8h” value amounted to 99.5. In the data set with red blood cells, the “⁵⁹Fe incorporation (%) 20 min” value stood at 5.0% and the “⁵⁹Fe incorporation (%) 1h” value came out at 5.0%. Further, the increasing iron excretion result in the data set on loaded mice and rabbits is reported as “effective”. Further, the “Lethal Dose (range)” value with male Sprague Dawley rats (setting [5]) was in the range of 600 to 700 mg/kg.
For `CCn1ccc(=O)c(O)c1C` [Example 2, 1-Ethyl-3-hydroxy-2-methylpyrid-4-one], the pKa in data set [1] (setting [4]) is 10.3. For the same compound, the pKa in data set [1] (read-out: PKa(1)) came to 3.6. For the same compound, in data set [2], the “Kpar Chelator” value was found to be 0.47, the “Kpar iron Complex” value is recorded as 0.52, the “K par Chelator” value amounted to 0.37 and the “K par Iron Complex” value was 0.52. Further, in the data set on red blood cells, the “⁵⁹Fe incorporation (%) 20 min” value worked out at 5.0% and the “⁵⁹Fe incorporation (%) 1h” value turned out to be 10%. Besides, the increasing iron excretion result with loaded mice and rabbits is given as “effective”. In the data set on male Sprague Dawley rats (rats, intraperitoneally, range of doses, the higher being lethal and the lower a non-lethal dose), the “Lethal Dose (range)” value was 400 to 500 mg/kg.
`CCc1c(O)c(=O)ccn1CC` [Example 5, 1,2-diethyl-3-hydroxypyrid-4-one]: in data set [1] (setting [4]), the pKa stood at 10.1. The pKa in data set [1] (read-out: PKa(1)) turned out to be 3.7. In data set [2], the “K par Chelator” value is listed as 1.4 and the “K par Iron Complex” value was found to be 0.28. On human transferrin, the “Percentage Iron Removal Transferrin ⁵⁹Fe 1h” value stood at 24.9, the “Percentage Iron Removal Transferrin ⁵⁹Fe 2h” value was 51.8 and the “Percentage Iron Removal Transferrin ⁵⁹Fe 8h” value worked out at 96.6. Also, the “%⁵⁹Fe excretion X ± SE” value in data set [3] (ig) was determined as 309 ± 22%. Also, in data set [3] (ip), the “%⁵⁹Fe excretion X ± SE” value was determined as 371 ± 46%.
Regarding `CCCn1ccc(=O)c(O)c1C` [Example 3, 3-Hydroxy-2-methyl-1-propylpyrid-4-one], the pKa in data set [1] (setting [4]) turned out to be 10.2. The pKa in data set [1] (read-out: PKa(1)) worked out at 3.7. Also, in the data set on red blood cells, the “⁵⁹Fe incorporation (%) 20 min” value was 85% and the “⁵⁹Fe incorporation (%) 1h” value was 86%. The “Lethal Dose (range)” value in the data set on male Sprague Dawley rats (setting [5]) was in the range of 150 to 200 mg/kg.
Regarding `CCc1c(O)c(=O)ccn1C` [Example 4, 2-Ethyl-3-hydroxy-1-methylpyrid-4-one], in data set [1] (setting [4]), the pKa was 9.8. Further, the pKa in data set [1] (read-out: PKa(1)) stood at 3.7. In data set [2], the “K par Chelator” value was determined as 0.4 and the “K par Iron Complex” value came to 0.02. For the same compound, at human transferrin, the “Percentage Iron Removal Transferrin ⁵⁹Fe 1h” value is on record as 36.0, the “Percentage Iron Removal Transferrin ⁵⁹Fe 2h” value is 56.6 and the “Percentage Iron Removal Transferrin ⁵⁹Fe 8h” value was found to be 100.0. Besides, the “%⁵⁹Fe excretion X ± SE” value in data set [3] (ig) was 362 ± 53%. The “%⁵⁹Fe excretion X ± SE” value in data set [3] (ip) was 415 ± 42%.
As to `CC(=O)N(O)CCCCCNC(=O)CCC(=O)N(O)CCCCCNC(=O)CCC(=O)N(O)CCCCCN` [Desferrioxamine, reference compound], the “%⁵⁹Fe excretion X ± SE” value in data set [3] (ip) is reported as 381 ± 49%.
